Source: patent US8927717B1, “Thiochromeno[2,3-c]quinolin-12-one derivatives, preparation method and application thereof” (National Defense Medical Center, priority 2014, dated 2015)

Assays:
Format in all cases: cell-based
M14 = test system: M14
HL-60(TB) = conditions: Leukemia; 10^−5 molar; 48 hours; SRB
SF-295 = test system: SF-295
BT-549 = test system: BT-549
SR = test system: SR
SN12C = test system: SN12C
NCI-H23 = test system: NCI-H23
MCF7 = test system: MCF7
MOLT-4 = test system: MOLT-4
LOX IMVI = conditions: LOX IMVI, five dose
DU-145 = test system: DU-145
RPMI-8226 = test system: RPMI-8226
SW-620 = test system: SW-620
K-562 = test system: K-562
MALME-3M = test system: MALME-3M
PC-3 = test system: PC-3
T-47D = test system: T-47D
SK-MEL-28 = test system: SK-MEL-28
HCT-15 = test system: HCT-15
UACC-62 = test system: UACC-62
OVCAR-5 = test system: OVCAR-5
NCI-H522 = test system: NCI-H522
A549/ATCC = test system: A549/ATCC
COLO 205 = test system: COLO 205
SNB-75 = test system: SNB-75
MDA-MB-486 = test system: MDA-MB-486
CCRF-CEM = test system: CCRF-CEM
RXF 393 = conditions: Renal cancer; 10^−5 molar; 48 hours; SRB
60 cancer cell lines = experiment: NCI 60-cell screen, SRB, whole panel (mean, delta, range)
HT29 = test system: HT29
786-0 = test system: 786-0
HS 578T = test system: HS 578T
SNB-19 = test system: SNB-19
A498 = test system: A498
MDA-MB-435 = test system: MDA-MB-435
UO-31 = test system: UO-31
OVCAR-8 = test system: OVCAR-8
TK-10 = test system: TK-10
NCI-H460 = test system: NCI-H460
[1] = Melanoma, 10^−5 molar, 48 hours, SRB
[2] = CNS cancer, 10^−5 molar, 48 hours, SRB
[3] = Breast cancer, 10^−5 molar, 48 hours, SRB
[4] = Leukemia, 10^−5 molar, 48 hours, SRB
[5] = Renal cancer, 10^−5 molar, 48 hours, SRB
[6] = Homo sapiens, NCI-H23, five dose
[7] = Non-small cell lung cancer, 10^−5 molar, 48 hours, SRB
[8] = Prostate cancer, 10^−5 molar, 48 hours, SRB
[9] = Colon cancer, 10^−5 molar, 48 hours, SRB
[10] = Homo sapiens, SW-620, five dose
[11] = Homo sapiens, MALME-3M, five dose
[12] = Homo sapiens, SK-MEL-28, five dose
[13] = Homo sapiens, HCT-15, five dose
[14] = Ovarian cancer, 10^−5 molar, 48 hours, SRB
[15] = Homo sapiens, NCI-H522, five dose
[16] = Homo sapiens, A549/ATCC, five dose
[17] = Homo sapiens, SNB-75, five dose
[18] = Homo sapiens, HT-29, HT29, five dose
[19] = Homo sapiens, NCI-H460, five dose

NCCNc1nc2ccccc2c2c(=O)c3cc(Cl)ccc3sc12 [Compound N14, 6-((2-Aminoethyl)amino)-10-chloro-12H-thiochromeno[2,3-c]quinolin-12-one]
GI50 (M14; Homo sapiens, M14, five dose): 1.83 µM
LC50 (M14; Homo sapiens, M14, five dose): 6.14 µM
TGI (M14; M14, five dose): 3.35 µM
Growth percent M14 (M14; [1]): −55.62%
Growth percent HL-60(TB) (HL-60(TB)): −47.50%
Growth percent SF-295 (SF-295; [2]): −74.29%
GI50 (SF-295; Homo sapiens, SF-295, five dose): 1.79 µM
TGI (SF-295; SF-295, five dose): 3.63 µM
TGI (BT-549; BT-549, five dose): 5.35 µM
Growth percent BT-549 (BT-549; [3]): 78.49%
GI50 (BT-549; Homo sapiens, BT-549, five dose): 2.15 µM
CC50 (BT-549; Homo sapiens, BT-549, five dose, read-out: LC50 (the source's name)): 62 µM
GI50 (SR; Homo sapiens, SR, five dose): 1.81 µM
LC50 (50% lethal concentration) (SR; Homo sapiens, SR, five dose): > 100 µM
Growth percent SR (SR; [4]): −51.67%
TGI (SR; SR, five dose): 4.30 µM
GI50 (SN12C; Homo sapiens, SN12C, five dose): 1.45 µM
Growth percent SN12C (SN12C; [5]): −93.98%
TGI (SN12C; SN12C, five dose): 3.02 µM
GI50 (NCI-H23; [6]): 1.72 µM
LC50 (lethal concentration 50%) (NCI-H23; [6]): 6.63 µM
TGI (NCI-H23; NCI-H23, five dose): 3.37 µM
Growth percent NCI-H23 (NCI-H23; [7]): −5.25%
Growth percent MCF7 (Table 2: MCF) (MCF7; [3]): −98.38%
GI50 (MCF7; Homo sapiens, MCF7, five dose): 1.28 µM
TGI (MCF7; MCF7, five dose): 2.81 µM
GI50 (MOLT-4; Homo sapiens, MOLT-4, five dose): 2.02 µM
CC50 (MOLT-4; Homo sapiens, MOLT-4, five dose, read-out: LC50 (the source's name)): 7.77 µM
Growth percent MOLT-4 (MOLT-4; [4]): −58.82%
TGI (MOLT-4; MOLT-4, five dose): 3.96 µM
GI50 (LOX IMVI; Homo sapiens): 1.68 µM
LC50 (LOX IMVI; Homo sapiens): 5.96 µM
TGI (LOX IMVI): 3.16 µM
TGI (DU-145; DU-145, five dose): 3.20 µM
GI50 (DU-145; Homo sapiens, DU-145, five dose): 1.81 µM
CC50 (DU-145; Homo sapiens, DU-145, five dose, read-out: LC50 (the source's name)): 5.66 µM
Growth percent DU-145 (DU-145; [8]): −96.35%
GI50 (RPMI-8226; Homo sapiens, RPMI-8226, five dose): 2.26 µM
CC50 (RPMI-8226; Homo sapiens, RPMI-8226, five dose, read-out: LC50 (the source's name)): 62.3 µM
Growth percent RPMI-8226 (RPMI-8226; [4]): −27.48%
TGI (RPMI-8226; RPMI-8226, five dose): 4.92 µM
Growth percent SW-620 (SW-620; [9]): −66.88%
GI50 (SW-620; [10]): 1.67 µM
LC50 (SW-620; [10]): 7.02 µM
TGI (SW-620; SW-620, five dose): 3.42 µM
GI50 (K-562; Homo sapiens, K562, K-562, five dose): 1.69 µM
CC50 (K-562; Homo sapiens, K562, K-562, five dose, read-out: LC50 (the source's name)): 7.84 µM
TGI (K-562; K-562, five dose): 3.65 µM
Growth percent K-562 (K-562; [4]): −57.17%
GI50 (MALME-3M; [11]): 1.98 µM
LC50 (MALME-3M; [11]): 7.93 µM
TGI (MALME-3M; MALME-3M, five dose): 3.96 µM
Growth percent MALME-3M (MALME-3M; [1]): −48.42%
GI50 (PC-3; Homo sapiens, PC-3, five dose): 1.55 µM
CC50 (PC-3; Homo sapiens, PC-3, five dose, read-out: LC50 (the source's name)): 5.76 µM
TGI (PC-3; PC-3, five dose): 2.99 µM
Growth percent PC-3 (PC-3; [8]): −97.71%
Growth percent T-47D (T-47D; [3]): −82.45%
GI50 (T-47D; Homo sapiens, T47D, T-47D, five dose): 1.56 µM
TGI (T-47D; T-47D, five dose): 3.37 µM
GI50 (SK-MEL-28; [12]): 1.75 µM
LC50 (SK-MEL-28; [12]): 5.66 µM
Growth percent SK-MEL-28 (SK-MEL-28; [1]): −96.20%
TGI (SK-MEL-28; SK-MEL-28, five dose): 3.15 µM
Growth percent HCT-15 (HCT-15; [9]): −45.92%
TGI (HCT-15; HCT-15, five dose): 3.12 µM
GI50 (HCT-15; [13]): 1.58 µM
LC50 (HCT-15; [13]): 6.16 µM
GI50 (UACC-62; Homo sapiens, UACC-62, five dose): 1.67 µM
CC50 (UACC-62; Homo sapiens, UACC-62, five dose, read-out: LC50 (the source's name)): 6.52 µM
Growth percent UACC-62 (UACC-62; [1]): −96.67%
TGI (UACC-62; UACC-62, five dose): 3.30 µM
GI50 (OVCAR-5; Homo sapiens, OVCAR-5, five dose): 1.46 µM
CC50 (OVCAR-5; Homo sapiens, OVCAR-5, five dose, read-out: LC50 (the source's name)): 5.66 µM
TGI (OVCAR-5; OVCAR-5, five dose): 2.88 µM
Growth percent OVCAR-5 (OVCAR-5; [14]): −52.16%
GI50 (NCI-H522; [15]): 1.86 µM
LC50 (concentration causing 50% net cell kill) (NCI-H522; [15]): 6.92 µM
TGI (NCI-H522; NCI-H522, five dose): 3.59 µM
Growth percent NCI-H522 (NCI-H522; [7]): −66.59%
TGI (A549/ATCC; A549/ATCC, five dose): 3.50 µM
GI50 (A549/ATCC; [16]): 1.83 µM
LC50 (A549/ATCC; [16]): 6.68 µM
Growth percent A549/ATCC (A549/ATCC; [7]): −88.76%
TGI (COLO 205; COLO 205, five dose): 3.57 µM
Growth percent COLO 205 (COLO 205; [9]): −87.22%
GI50 (COLO 205; Homo sapiens, COLO 205, five dose): 1.73 µM
Growth percent SNB-75 (SNB-75; [2]): −43.13%
GI50 (SNB-75; [17]): 1.09 µM
LC50 (SNB-75; [17]): 4.9 µM
TGI (SNB-75; SNB-75, five dose): 2.31 µM
GI50 (MDA-MB-486; 60 cell, MDA-MB-486, five dose): 1.27 µM
CC50 (MDA-MB-486; 60 cell, MDA-MB-486, five dose, read-out: LC50 (the source's name)): 6.15 µM
Growth percent MDA-MB-486 (MDA-MB-486; [3]): −62.13%
TGI (MDA-MB-486; MDA-MB-486, five dose): 2.80 µM
TGI (CCRF-CEM; CCRF-CEM, five dose): 3.65 µM
GI50 (CCRF-CEM; Homo sapiens, CCRF-CEM, five dose): 1.75 µM
CC50 (CCRF-CEM; Homo sapiens, CCRF-CEM, five dose, read-out: LC50 (the source's name)): 7.64 µM
Growth percent CCRF-CEM (CCRF-CEM; [4]): −39.61%
Growth percent RXF 393 (RXF 393): −87.22%
GI50 (60 cancer cell lines; 60 cell, mean over panel, five dose): 1.66 µM
CC50 (60 cancer cell lines; 60 cell, mean over panel, five dose, read-out: LC50, Mean): 7.94 µM
Growth percent, Delta (60 cancer cell lines; delta over the cell panel, 10^−5 molar, 48 hours, SRB): 46.49%
TGI, Mean (60 cancer cell lines; mean over panel, five dose): 3.39 µM
Growth percent, Mean (60 cancer cell lines; mean over the cell panel, 10^−5 molar, 48 hours, SRB): −51.89%
Growth percent, Range (60 cancer cell lines; range over the cell panel, 10^−5 molar, 48 hours, SRB): 176.87%
Growth percent HT29 (HT29; [9]): −83.30%
TGI (HT29; HT29, five dose): 3.29 µM
GI50 (HT29; [18]): 1.78 µM
LC50 (concentration killing 50% of cells) (HT29; [18]): 6.09 µM
TGI (786-0; 786-0, five dose): 3.20 µM
GI50 (786-0; Homo sapiens, 786-0, five dose): 1.76 µM
CC50 (786-0; Homo sapiens, 786-0, five dose, read-out: LC50 (the source's name)): 5.81 µM
Growth percent 786-0 (786-0; [5]): −57.40%
Growth percent HS 578T (HS 578T; [3]): 50.82%
TGI (HS 578T; HS 578T, five dose): 3.90 µM
GI50 (HS 578T; Homo sapiens, HS 578T, five dose): 1.69 µM
Growth percent SNB-19 (SNB-19; [2]): 40.06%
GI50 (SNB-19; Homo sapiens, SNB-19, five dose): 1.65 µM
TGI (SNB-19; SNB-19, five dose): 3.18 µM
TGI (A498; A498, five dose): 4.99 µM
GI50 (A498; Homo sapiens, A498, five dose): 1.45 µM
CC50 (A498; Homo sapiens, A498, five dose, read-out: LC50 (the source's name)): 29.2 µM
Growth percent A498 (A498; [5]): 60.29%
GI50 (MDA-MB-435; Homo sapiens, MDA-MB-435, five dose): 1.82 µM
TGI (MDA-MB-435; MDA-MB-435, five dose): 3.59 µM
Growth percent MDA-MB-435 (MDA-MB-435; [1]): −85.39%
GI50 (UO-31; Homo sapiens, UO-31, five dose): 1.29 µM
CC50 (UO-31; Homo sapiens, UO-31, five dose, read-out: LC50 (the source's name)): 5.96 µM
Growth percent UO-31 (UO-31; [5]): −92.77%
TGI (UO-31; UO-31, five dose): 2.78 µM
GI50 (OVCAR-8; Homo sapiens, OVCAR-8, five dose): 1.89 µM
TGI (OVCAR-8; OVCAR-8, five dose): 4.12 µM
Growth percent OVCAR-8 (OVCAR-8; [14]): −74.59%
GI50 (TK-10; Homo sapiens, TK-10, five dose): 2.06 µM
CC50 (TK-10; Homo sapiens, TK-10, five dose, read-out: LC50 (the source's name)): 6.21 µM
Growth percent TK-10 (TK-10; [5]): −28.04%
TGI (TK-10; TK-10, five dose): 3.58 µM
GI50 (NCI-H460; [19]): 1.69 µM
LC50 (NCI-H460; [19]): 7.05 µM
TGI (NCI-H460; NCI-H460, five dose): 3.45 µM
Growth percent NCI-H460 (NCI-H460; [7]): −62.39%
